Tests used:
[1] = Toxicity in sheep erythrocytes assessed as hemolysis; type: cell-based, Ovis aries, Erythrocyte; conditions: for HD100: erythrocyte; for HC50: sheep erythrocytes, read-out: HD50 (the source's name)
[2] = Toxicity in sheep erythrocytes assessed as hemolysis at >500 ug/mL; type: cell-based, Ovis aries, Erythrocyte; conditions: read-out: Activity

COC(=O)[C@H]1O[C@@H](O[C@H]2[C@@H](O)C[C@]3(C)[C@H]4CC=C5[C@@H]6CC(C)(C)CC[C@]6(C(=O)O)CC[C@@]5(C)[C@]4(C)CC[C@H]3C2(C)C)[C@H](O)[C@@H](O[C@@H]2O[C@H](CO)[C@H](O)[C@H](O)[C@H]2O)[C@@H]1O
HD100 [1]: 303 µM | HC50 [1]: 157 µM

CC1(C)CC[C@]2(C(=O)O)CC[C@]3(C)C(=CC[C@@H]4[C@@]5(C)CC[C@H](O[C@@H]6O[C@H](C(=O)O)[C@@H](O)[C@H](O)[C@H]6O)[C@@](C)(CO)C5CC[C@]43C)[C@@H]2C1 (stereo not given in full)
HD100 [1]: 116 µM | HC50 [1]: 93 µM

CC1(C)CC[C@]2(C(=O)O)CC[C@]3(C)C(=CC[C@@H]4[C@@]5(C)CC[C@H](O[C@@H]6O[C@H](C(=O)O)[C@@H](O)[C@H](O[C@@H]7O[C@H](CO)[C@H](O)[C@H](O)[C@H]7O)[C@H]6O)[C@@](C)(CO)[C@@H]5CC[C@]43C)[C@@H]2C1
HD100 [1]: 93 µM | HC50 [1]: 45 µM

CC1(C)CC[C@]2(C(=O)O[C@@H]3O[C@H](CO)[C@@H](O)[C@H](O)[C@H]3O)CC[C@]3(C)C(=CC[C@@H]4[C@@]5(C)C[C@H](O)[C@H](O[C@@H]6O[C@H](CO)[C@@H](O)[C@H](O[C@@H]7O[C@H](CO)[C@H](O)[C@H](O)[C@H]7O)[C@H]6O)[C@@](C)(CO)[C@@H]5CC[C@]43C)[C@@H]2C1
HD100 [1]: > 513 µM | hemolysis [2]: 10%

CC1(C)CC[C@]2(C(=O)O[C@@H]3O[C@H](CO)[C@@H](O)[C@H](O)[C@H]3O)CC[C@]3(C)C(=CC[C@@H]4[C@@]5(C)CC[C@H](O[C@@H]6O[C@H](C(=O)O)[C@@H](O)[C@H](O[C@@H]7O[C@H](CO)[C@H](O)[C@H](O)[C@H]7O)[C@H]6O)[C@@](C)(CO)[C@@H]5CC[C@]43C)[C@@H]2C1
HD100 [1]: 514 µM | HC50 [1]: 309 µM

CC1(C)CC[C@]2(C(=O)O)CC[C@]3(C)C(=CC[C@@H]4[C@@]5(C)C[C@H](O)[C@H](O[C@@H]6O[C@H](C(=O)O)[C@@H](O)[C@H](O[C@@H]7O[C@H](CO)[C@H](O)[C@H](O)[C@H]7O)[C@H]6O)[C@@](C)(CO)[C@@H]5CC[C@]43C)[C@@H]2C1
HD100 [1]: 121 µM | HC50 [1]: 66 µM

CC1(C)CC[C@]2(C(=O)O)CC[C@]3(C)C(=CC[C@@H]4[C@@]5(C)C[C@H](O)[C@H](O[C@@H]6O[C@H](CO)[C@@H](O)[C@H](O[C@@H]7O[C@H](CO)[C@H](O)[C@H](O)[C@H]7O)[C@H]6O)[C@@](C)(CO)[C@@H]5CC[C@]43C)[C@@H]2C1
HD100 [1]: 24 µM | HC50 [1]: 18 µM

CC1(C)CC[C@]2(C(=O)O)CC[C@]3(C)C(=CC[C@@H]4[C@@]5(C)CC[C@H](O[C@@H]6O[C@H](CO)[C@@H](O)[C@H](O[C@@H]7O[C@H](CO)[C@H](O)[C@H](O)[C@H]7O)[C@H]6O)[C@@](C)(CO)[C@@H]5CC[C@]43C)[C@@H]2C1
HD100 [1]: 94 µM | HC50 [1]: 56 µM

CC1(C)CC[C@]2(C(=O)O)CC[C@]3(C)C(=CC[C@@H]4[C@@]5(C)C[C@H](O)[C@H](O[C@@H]6O[C@H](C(=O)O)[C@@H](O)[C@H](O[C@@H]7O[C@H](CO)[C@H](O)[C@H](O)[C@H]7O)[C@H]6O)C(C)(C)[C@@H]5CC[C@]43C)[C@@H]2C1
HD100 [1]: 49 µM | HC50 [1]: 32 µM

CC1(C)CC[C@]2(C(=O)O)CC[C@]3(C)C(=CC[C@@H]4[C@@]5(C)CC[C@H](O[C@@H]6O[C@H](C(=O)O)[C@@H](O)[C@H](O[C@@H]7O[C@H](CO)[C@H](O)[C@H](O)[C@H]7O)[C@H]6O)C(C)(C)[C@@H]5CC[C@]43C)[C@@H]2C1 [GLYCOSIDE D]
HD100 [1]: 31 µM | HC50 [1]: 19 µM
